Results as given in patent US9993423B2, “Microneedle deposition method” (COSMED PHARMACEUTICAL CO., LTD., priority 2011, dated 2018).

Tested on: diabetes model rats created by administration of streptozotocin
Assay: Blood glucose level measurement test after insulin administration
Format: in vivo, rat
Conditions: 0.5, 1 and 2 hours, fasted diabetes model rats, FIG. 2
Method: Insulin was transdermally administered to rats using the manufactured microneedle array.
In diabetes model rats created by administration of streptozotocin (Body weight: about 300 g), their abdomens were dehaired. After these rats were fasted for 14 hours or longer, the microneedle array was inserted to the dehaired skin and fixed to the skin by YU-KI BAN (NITTO MEDICAL CORPORATION). Blood was sampled 0.5, 1 and 2 hours after administration of the microneedle array, and the blood glucose levels were measured. For measurement of the blood glucose levels, Glucose CII-test kit (Wako Pure Chemical Industries, Ltd.) was used. The tests were conducted in four cases.
Insulin was subcutaneously injected to rats.
After the diabetes model rats were fasted for 14 hours or longer, 0.25 units of insulin were subcutaneously injected. Blood was sampled 0.5, 1 and 2 hours after administration of insulin, and the blood glucose levels were measured. For measurement of the blood glucose levels, Glucose CII-test kit was used like Example 1. […]. The tests were conducted in four cases.
As a standard of the blood glucose level measurement test, a control (no insulin) was measured.
After the diabetes model rats were fasted for 14 hours or longer, blood was sampled 0.5, 1 and 2 hours later, and the blood glucose levels were measured. […]

insulin: Bovine insulin (NACALAI TESQUE), given on hyaluronic acid microneedle array tips (0.25 unit per array) or by subcutaneous injection
blood glucose level (relative value, time zero = 100) (microneedle array, 0.25 unit insulin, transdermal on dehaired abdomen): lowered
blood glucose level (relative value, time zero = 100) (subcutaneous injection, 0.25 units of insulin): lowered
